Literature values, collected in patent US10035822B2, “Cell-reactive, long-acting, or targeted compstatin analogs and related compositions and methods” (APELLIS PHARMACEUTICALS, INC., priority 2012, dated 2018).
Non-standard residues stand in square brackets, D forms with d. Trp(6-F) = N[C@@H](Cc1c[nH]c2cc(F)ccc12)C(=O)O; Bpa = N[C@@H](Cc1ccc(C(=O)c2ccccc2)cc1)C(=O)O; 1Nal = N[C@@H](Cc1cccc2ccccc12)C(=O)O; 2Nal = N[C@@H](Cc1ccc2ccccc2c1)C(=O)O

Test system: complement activation
Conditions: relative to compstatin amidated at the C-terminus; published data (WO2004/026328, WO2007044668, Mallik 2005, Katragadda 2006); cited from earlier work

Substance | Activity over compstatin
Ac-ICV(1-Nal)QDWGAHRCT-COOH (Ac-ICV[1Nal]QDWGAHRCT-OH; cysteine pairing not given here) [Ac V4(1-Nal)/H9A-OH] | 30× more
Ac-ICV(2-IgI)QDWGAHRCT-CONH2 (Ac-ICV[2‑Igl]QDWGAHRCT-NH2; cysteine pairing not given here) [Ac-V42IgI/H9A] | 39× more
Ac-ICV(2-IgI)QDWGAHRCT-COOH (Ac-ICV[2‑Igl]QDWGAHRCT-OH; cysteine pairing not given here) [Ac-V42IgI/H9A-OH] | 37× more
Ac-ICV(2-Nal)QDWGAHRCT-CONH2 (Ac-ICV[2Nal]QDWGAHRCT-NH2; cysteine pairing not given here) [Ac-V4(2-Nal)/H9A] | 99× more
Ac-ICV(2-Nal)QDWGAHRCT-COOH (Ac-ICV[2Nal]QDWGAHRCT-OH; cysteine pairing not given here) [Ac V4(2-Nal)/H9A-OH] | 38× more
Ac-ICV(5-methyl-W)QDWGAHRCT-CONH2 [Ac-V4(5-MeW)/H9A] | 67× more
Ac-ICV(5fW)QDWGAHRCT-CONH2 [Ac-V4(5fW)/H9A] | 31× more
Ac-ICV(Bpa)QDWGAHRCT-CONH2 (Ac-ICV[Bpa]QDWGAHRCT-NH2; cysteine pairing not given here) [Ac-V4(Bpa)/H9A] | 86× more
Ac-ICV(Bpa)QDWGAHRCT-COOH (Ac-ICV[Bpa]QDWGAHRCT-OH; cysteine pairing not given here) [Ac-V4(Bpa)/H9A-OH] | 49× more
Ac-ICVDhtQDWGAHRCT-COOH [Ac-V4Dht/H9A-OH] | 5× more
Ac-ICVVQDWGHHRCT-CONH2 [Ac-compstatin] | 3× more
Ac-ICVWQD(5fW)GAHRCT-CONH2 [Ac-V4W/W7(5fW)/H9A] | 121× more
Ac-ICVWQDWGAHRCT-CONH2 [Ac-V4W/H9A] | 45× more
Ac-ICVWQDWGAHRCdT-COOH [Ac-V4W/H9A/T13dT-OH] | 55× more
Ac-ICVYQDWGAHRCT-CONH2 [Ac-V4Y/H9A] | 14× more
H-GICV(6fW)QD(6fW)GAHRCTN-COOH (H-GICV[Trp(6-F)]QD[Trp(6-F)]GAHRCTN-OH; cysteine pairing not given here) [+G/V4(6fW)/W7(6fW)H9A + N-OH] | 126× more
